Active and inactive are the calls of the source.
Experiments:
[1] = biological target: Peroxisome proliferator-activated receptor gamma/Nuclear receptor corepressor 2 (Homo sapiens, UniProt P37231+Q9Y618); assay: Counterscreen for NR2E3 inverse agonists: TR-FRET-based biochemical high throughput dose response assay to identify inverse agonists of the interaction between peroxisome proliferator-activated receptor gamma (PPARg) and nuclear receptor co-repressor 2 (NCOR2).; format: functional
[2] = biological target: Photoreceptor-specific nuclear receptor (Homo sapiens, UniProt Q9Y5X4); assay: ligands suppressing NR2E3 nuclear receptor activity – biochemical, TR-FRET, dose response (AID 463256); format: functional
Chain of Photoreceptor-specific nuclear receptor (Q9Y5X4 whole entry): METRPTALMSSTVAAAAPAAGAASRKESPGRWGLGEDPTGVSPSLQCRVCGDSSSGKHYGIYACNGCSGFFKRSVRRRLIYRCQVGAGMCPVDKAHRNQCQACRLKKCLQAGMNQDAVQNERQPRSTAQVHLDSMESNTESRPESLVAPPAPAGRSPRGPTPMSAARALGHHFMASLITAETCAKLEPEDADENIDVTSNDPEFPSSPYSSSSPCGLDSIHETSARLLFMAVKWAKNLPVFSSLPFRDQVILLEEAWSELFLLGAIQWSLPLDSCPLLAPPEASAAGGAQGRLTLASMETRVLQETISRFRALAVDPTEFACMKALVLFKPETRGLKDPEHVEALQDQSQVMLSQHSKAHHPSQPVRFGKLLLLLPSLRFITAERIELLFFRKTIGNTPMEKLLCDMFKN

[3] = biological target: T1, Mannose-6-phosphate isomerase (Homo sapiens, UniProt P34949); assay: MPI enzyme activity inhibition – biochemical, fluorescence intensity, coupled assay, primary screen (AID 1209)
T1 sequence (P34949 whole entry): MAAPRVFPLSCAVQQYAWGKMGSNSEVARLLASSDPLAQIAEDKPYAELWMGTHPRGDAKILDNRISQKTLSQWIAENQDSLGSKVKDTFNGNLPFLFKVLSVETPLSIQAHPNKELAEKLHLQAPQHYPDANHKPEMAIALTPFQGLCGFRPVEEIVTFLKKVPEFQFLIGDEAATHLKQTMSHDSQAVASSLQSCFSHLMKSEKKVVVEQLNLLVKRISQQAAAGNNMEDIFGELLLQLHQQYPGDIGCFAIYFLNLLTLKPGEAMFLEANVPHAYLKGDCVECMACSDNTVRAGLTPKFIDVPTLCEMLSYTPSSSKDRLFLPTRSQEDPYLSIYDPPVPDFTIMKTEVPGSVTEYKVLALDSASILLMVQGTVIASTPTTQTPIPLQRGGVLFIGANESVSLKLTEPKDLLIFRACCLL

CHO-K1 = assay: (§1) Counterscreen for antagonists of the orexin 1 receptor (OX1R; HCRTR1): Homogeneous time resolved fluorescence (HTRF)-based cell-based dose response assay to identify antagonists of the parental CHO-K1 cell line. [Related pubchem assays (depositor defined):AID434989, AID435008, AID463079, AID485270, AID492963, AID492964, AID492965, AID493232, AID504699, AID504701]; format: functional; conditions: Cricetulus griseus
[4] = as §1, with “Fluorescence-based” for “Homogeneous time resolved fluorescence (HTRF)-based”, “cell-based high throughput” for “cell-based”, “CHO” for “CHO-K1”; format: functional
[5] = biological target: T2, Orexin/Hypocretin receptor type 1 (Homo sapiens, UniProt O43613); assay: Homogeneous Time Resolved Fluorescence (HTRF)-based cell-based high throughput dose response assay for antagonists of the orexin 1 receptor (OX1R; HCRTR1). [Related pubchem assays (depositor defined):AID434989, AID435008, AID463079, AID485270, AID492963, AID492964, AID492965, AID493232, AID504717, AID504718]; format: functional
T2 sequence (O43613 whole entry): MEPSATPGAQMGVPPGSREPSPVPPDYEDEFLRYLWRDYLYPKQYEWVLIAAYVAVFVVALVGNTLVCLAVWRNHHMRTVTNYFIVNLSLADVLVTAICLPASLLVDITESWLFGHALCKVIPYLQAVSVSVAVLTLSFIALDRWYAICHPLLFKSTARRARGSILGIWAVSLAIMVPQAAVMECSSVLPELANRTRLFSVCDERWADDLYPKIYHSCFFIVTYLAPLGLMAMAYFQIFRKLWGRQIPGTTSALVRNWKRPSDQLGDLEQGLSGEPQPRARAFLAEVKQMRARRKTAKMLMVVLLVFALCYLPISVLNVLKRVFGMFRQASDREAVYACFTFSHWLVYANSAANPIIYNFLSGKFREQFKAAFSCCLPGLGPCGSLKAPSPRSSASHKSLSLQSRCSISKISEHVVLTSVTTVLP

[6] = biological target: T2, Orexin/Hypocretin receptor type 1; assay: Fluorescence-based cell-based high throughput dose response assay for antagonists of the orexin 1 receptor (OX1R; HCRTR1). [Related pubchem assays (depositor defined):AID434989, AID435008, AID463079, AID485270, AID492963, AID492964, AID492965, AID493232, AID504717, AID504718]; format: functional
Orexin receptor type 2 [7] = biological target: T3, Orexin receptor type 2 (Homo sapiens, UniProt O43614); assay: Counterscreen assay for antagonists of the orexin 1 receptor (OX1R; HCRTR1): Fluorescence-based cell-based dose response assay for antagonists of the orexin 2 receptor (OX2R; HCRTR2), run by assay provider.; format: functional
T3 sequence (O43614 whole entry): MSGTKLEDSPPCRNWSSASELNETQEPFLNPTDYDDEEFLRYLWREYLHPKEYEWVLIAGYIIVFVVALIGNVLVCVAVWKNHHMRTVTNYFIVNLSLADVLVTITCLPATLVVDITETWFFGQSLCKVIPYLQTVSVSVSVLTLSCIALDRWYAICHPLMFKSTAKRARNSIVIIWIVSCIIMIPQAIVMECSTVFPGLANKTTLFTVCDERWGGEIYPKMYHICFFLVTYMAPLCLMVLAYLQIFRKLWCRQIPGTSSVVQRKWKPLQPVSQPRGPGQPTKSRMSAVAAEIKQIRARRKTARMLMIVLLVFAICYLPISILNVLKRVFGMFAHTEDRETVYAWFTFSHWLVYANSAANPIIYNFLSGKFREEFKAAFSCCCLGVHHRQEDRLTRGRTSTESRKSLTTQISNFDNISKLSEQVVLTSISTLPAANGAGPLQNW

Orexin receptor type 2 [8] = biological target: T3, Orexin receptor type 2; assay: Counterscreen assay for antagonists of the orexin 1 receptor (OX1R; HCRTR1): Homogeneous Time Resolved Fluorescence (HTRF)-based cell-based dose response assay for antagonists of the orexin 2 receptor (OX2R; HCRTR2), run by assay provider.; format: functional
Aspartyl aminopeptidase = biological target: T4, Aspartyl aminopeptidase (Plasmodium falciparum 3D7, UniProt Q8I2J3)
T4 sequence (Q8I2J3 whole entry): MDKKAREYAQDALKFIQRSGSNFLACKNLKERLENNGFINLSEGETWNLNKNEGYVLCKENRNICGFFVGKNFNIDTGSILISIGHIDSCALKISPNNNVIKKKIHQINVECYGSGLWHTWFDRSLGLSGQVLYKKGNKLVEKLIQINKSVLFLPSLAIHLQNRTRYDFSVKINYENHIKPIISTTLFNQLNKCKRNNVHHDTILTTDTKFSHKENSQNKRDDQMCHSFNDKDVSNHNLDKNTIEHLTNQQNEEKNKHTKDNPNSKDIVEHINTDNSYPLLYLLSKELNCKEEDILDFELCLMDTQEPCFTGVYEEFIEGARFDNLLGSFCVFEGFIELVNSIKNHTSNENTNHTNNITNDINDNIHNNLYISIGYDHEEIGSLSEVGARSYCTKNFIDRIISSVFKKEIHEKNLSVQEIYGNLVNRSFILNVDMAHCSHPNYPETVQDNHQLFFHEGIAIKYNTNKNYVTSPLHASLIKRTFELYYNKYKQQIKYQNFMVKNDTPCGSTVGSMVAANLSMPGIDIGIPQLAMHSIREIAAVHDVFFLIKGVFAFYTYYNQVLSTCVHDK

Procathepsin L = Procathepsin L (Homo sapiens, UniProt P07711)
Chain of Procathepsin L (P07711 whole entry): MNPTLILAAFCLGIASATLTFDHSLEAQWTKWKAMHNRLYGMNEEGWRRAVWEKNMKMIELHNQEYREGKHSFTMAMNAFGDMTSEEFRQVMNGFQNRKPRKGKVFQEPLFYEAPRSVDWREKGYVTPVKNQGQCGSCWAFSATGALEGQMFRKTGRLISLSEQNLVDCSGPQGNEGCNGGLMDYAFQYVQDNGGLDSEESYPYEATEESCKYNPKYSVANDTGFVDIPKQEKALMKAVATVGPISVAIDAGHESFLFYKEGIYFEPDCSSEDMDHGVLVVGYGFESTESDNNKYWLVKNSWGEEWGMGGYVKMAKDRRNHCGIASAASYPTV

[9] = biological target: T1, Mannose-6-phosphate isomerase; assay: MPI inhibition at elevated mannose 6-phosphate – biochemical, fluorescence intensity, high mannose 6-phosphate, primary screen (AID 1220)
[10] = Luminescence Cell-Based Dose Retest to Confirm Inhibitors of Cancer Stem Cells. [Related pubchem assays (depositor defined):AID2717, AID2721]; format: functional; conditions: Homo sapiens
[11] = biological target: Luciferin 4-monooxygenase (Photinus pyralis, UniProt P08659); assay: Counter Screen for Luciferase-based Assay Positives. [Related pubchem assays: 620, 618, 411 ]
Chain of Luciferin 4-monooxygenase (P08659 whole entry): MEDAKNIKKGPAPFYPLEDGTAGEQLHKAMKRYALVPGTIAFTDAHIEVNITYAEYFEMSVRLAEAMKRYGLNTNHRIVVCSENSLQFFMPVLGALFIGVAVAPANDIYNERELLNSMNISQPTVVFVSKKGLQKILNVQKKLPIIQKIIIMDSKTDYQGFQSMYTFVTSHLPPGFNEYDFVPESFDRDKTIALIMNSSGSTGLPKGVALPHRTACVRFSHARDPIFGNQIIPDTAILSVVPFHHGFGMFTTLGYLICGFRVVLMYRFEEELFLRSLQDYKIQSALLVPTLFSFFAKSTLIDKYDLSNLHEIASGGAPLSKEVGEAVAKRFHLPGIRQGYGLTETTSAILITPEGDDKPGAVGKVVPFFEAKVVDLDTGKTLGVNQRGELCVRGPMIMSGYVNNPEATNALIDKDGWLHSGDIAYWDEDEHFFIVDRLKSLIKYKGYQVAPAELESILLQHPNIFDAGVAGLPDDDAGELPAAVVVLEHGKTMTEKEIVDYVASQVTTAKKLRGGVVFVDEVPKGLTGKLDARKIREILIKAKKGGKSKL

HT-1080 = assay: HT1080 cell viability loss – fluorescence readout (AID 620); format: functional, cell-based; conditions: Homo sapiens
[12] = biological target: T5, Oxysterols receptor LXR-beta (Homo sapiens, UniProt P55055); format: functional, cell-based;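 note: Cell-based luminescence dose-response assay of agonist activity at LXR, run as a confirmatory counterscreen to a daf-12 agonist screen; HEK293 cells with Gal4-LXR fusion and GAL4-driven luciferase reporter; agonist potency from rising luciferase signal of a Gal4-LXR reporter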
T5 sequence (P55055 whole entry): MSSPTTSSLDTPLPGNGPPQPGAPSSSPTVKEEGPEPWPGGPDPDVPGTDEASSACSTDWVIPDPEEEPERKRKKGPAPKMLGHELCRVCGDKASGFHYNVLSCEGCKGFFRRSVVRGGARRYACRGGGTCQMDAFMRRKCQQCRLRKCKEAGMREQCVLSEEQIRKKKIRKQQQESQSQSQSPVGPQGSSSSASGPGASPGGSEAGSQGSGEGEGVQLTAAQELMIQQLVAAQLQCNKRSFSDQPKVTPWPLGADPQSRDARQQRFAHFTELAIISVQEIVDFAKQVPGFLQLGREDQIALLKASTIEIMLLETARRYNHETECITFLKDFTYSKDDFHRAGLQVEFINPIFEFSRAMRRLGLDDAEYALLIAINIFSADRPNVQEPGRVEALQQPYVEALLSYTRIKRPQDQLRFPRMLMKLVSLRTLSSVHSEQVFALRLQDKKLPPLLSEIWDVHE

cells [13] = assay: cells
[14] = luciferase reporter signal reduction – luminescence, H4-C neuroglioblastoma cells, dose response (AID 2458); format: functional, cell-based;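 note: H4 neuroglioblastoma cells stably carrying a luciferase reporter gene fusion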
BJ [15] = assay: BJ-TERT fibroblast viability loss – cell-based, RAS-independent, luminescence, dose response (AID 1933); format: functional; conditions: Homo sapiens
cells [16] = format: functional, cell-based
[17] = alpha-synuclein stem-loop luciferase translation blockers – H4 neuroglioma cells, luminescence, confirmation (AID 1988); format: functional, cell-based
BJ [18] = assay: cells; format: functional, cell-based; conditions: Homo sapiens
BJ [19] = assay: BJ-TERT-LT-ST fibroblast viability loss – cell-based, RAS-independent, luminescence, dose response (AID 1935); format: functional; conditions: Homo sapiens;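 note: BJ fibroblasts immortalized with TERT plus LT and ST oncogenes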
[20] = DRD fibroblast viability loss – cell-based, non-viral oncogenic, luminescence, dose response (AID 1934); format: functional; conditions: Homo sapiens
[21] = alpha-synuclein stem-loop translation blockers – luminescence, H4 neuroglioblastoma cells, dose confirmation, confirmation (AID 2454); format: functional, cell-based;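 note: H4 neuroglioblastoma cells carrying an alpha-synuclein 5'UTR luciferase reporter; potency for inhibition of the luciferase signal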
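Throughout, for AC50: cells exposed to compound for roughly 70 hours or longer before luminescence read.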

Chain of Peroxisome proliferator-activated receptor gamma/Nuclear receptor corepressor 2 (P37231 whole entry): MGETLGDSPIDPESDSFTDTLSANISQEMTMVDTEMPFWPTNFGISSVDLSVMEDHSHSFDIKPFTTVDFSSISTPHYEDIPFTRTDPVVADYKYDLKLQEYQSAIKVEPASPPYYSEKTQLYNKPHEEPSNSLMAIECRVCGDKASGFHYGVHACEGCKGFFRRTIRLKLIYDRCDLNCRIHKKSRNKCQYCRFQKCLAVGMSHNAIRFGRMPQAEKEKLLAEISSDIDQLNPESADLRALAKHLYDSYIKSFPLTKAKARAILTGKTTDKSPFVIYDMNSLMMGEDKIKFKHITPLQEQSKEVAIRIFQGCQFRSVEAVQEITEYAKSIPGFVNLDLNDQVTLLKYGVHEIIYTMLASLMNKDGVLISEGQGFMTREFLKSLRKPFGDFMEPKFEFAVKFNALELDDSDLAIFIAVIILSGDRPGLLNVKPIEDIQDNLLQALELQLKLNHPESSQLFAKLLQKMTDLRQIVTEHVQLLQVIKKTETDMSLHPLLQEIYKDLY
Chain of Peroxisome proliferator-activated receptor gamma/Nuclear receptor corepressor 2 (Q9Y618 whole entry): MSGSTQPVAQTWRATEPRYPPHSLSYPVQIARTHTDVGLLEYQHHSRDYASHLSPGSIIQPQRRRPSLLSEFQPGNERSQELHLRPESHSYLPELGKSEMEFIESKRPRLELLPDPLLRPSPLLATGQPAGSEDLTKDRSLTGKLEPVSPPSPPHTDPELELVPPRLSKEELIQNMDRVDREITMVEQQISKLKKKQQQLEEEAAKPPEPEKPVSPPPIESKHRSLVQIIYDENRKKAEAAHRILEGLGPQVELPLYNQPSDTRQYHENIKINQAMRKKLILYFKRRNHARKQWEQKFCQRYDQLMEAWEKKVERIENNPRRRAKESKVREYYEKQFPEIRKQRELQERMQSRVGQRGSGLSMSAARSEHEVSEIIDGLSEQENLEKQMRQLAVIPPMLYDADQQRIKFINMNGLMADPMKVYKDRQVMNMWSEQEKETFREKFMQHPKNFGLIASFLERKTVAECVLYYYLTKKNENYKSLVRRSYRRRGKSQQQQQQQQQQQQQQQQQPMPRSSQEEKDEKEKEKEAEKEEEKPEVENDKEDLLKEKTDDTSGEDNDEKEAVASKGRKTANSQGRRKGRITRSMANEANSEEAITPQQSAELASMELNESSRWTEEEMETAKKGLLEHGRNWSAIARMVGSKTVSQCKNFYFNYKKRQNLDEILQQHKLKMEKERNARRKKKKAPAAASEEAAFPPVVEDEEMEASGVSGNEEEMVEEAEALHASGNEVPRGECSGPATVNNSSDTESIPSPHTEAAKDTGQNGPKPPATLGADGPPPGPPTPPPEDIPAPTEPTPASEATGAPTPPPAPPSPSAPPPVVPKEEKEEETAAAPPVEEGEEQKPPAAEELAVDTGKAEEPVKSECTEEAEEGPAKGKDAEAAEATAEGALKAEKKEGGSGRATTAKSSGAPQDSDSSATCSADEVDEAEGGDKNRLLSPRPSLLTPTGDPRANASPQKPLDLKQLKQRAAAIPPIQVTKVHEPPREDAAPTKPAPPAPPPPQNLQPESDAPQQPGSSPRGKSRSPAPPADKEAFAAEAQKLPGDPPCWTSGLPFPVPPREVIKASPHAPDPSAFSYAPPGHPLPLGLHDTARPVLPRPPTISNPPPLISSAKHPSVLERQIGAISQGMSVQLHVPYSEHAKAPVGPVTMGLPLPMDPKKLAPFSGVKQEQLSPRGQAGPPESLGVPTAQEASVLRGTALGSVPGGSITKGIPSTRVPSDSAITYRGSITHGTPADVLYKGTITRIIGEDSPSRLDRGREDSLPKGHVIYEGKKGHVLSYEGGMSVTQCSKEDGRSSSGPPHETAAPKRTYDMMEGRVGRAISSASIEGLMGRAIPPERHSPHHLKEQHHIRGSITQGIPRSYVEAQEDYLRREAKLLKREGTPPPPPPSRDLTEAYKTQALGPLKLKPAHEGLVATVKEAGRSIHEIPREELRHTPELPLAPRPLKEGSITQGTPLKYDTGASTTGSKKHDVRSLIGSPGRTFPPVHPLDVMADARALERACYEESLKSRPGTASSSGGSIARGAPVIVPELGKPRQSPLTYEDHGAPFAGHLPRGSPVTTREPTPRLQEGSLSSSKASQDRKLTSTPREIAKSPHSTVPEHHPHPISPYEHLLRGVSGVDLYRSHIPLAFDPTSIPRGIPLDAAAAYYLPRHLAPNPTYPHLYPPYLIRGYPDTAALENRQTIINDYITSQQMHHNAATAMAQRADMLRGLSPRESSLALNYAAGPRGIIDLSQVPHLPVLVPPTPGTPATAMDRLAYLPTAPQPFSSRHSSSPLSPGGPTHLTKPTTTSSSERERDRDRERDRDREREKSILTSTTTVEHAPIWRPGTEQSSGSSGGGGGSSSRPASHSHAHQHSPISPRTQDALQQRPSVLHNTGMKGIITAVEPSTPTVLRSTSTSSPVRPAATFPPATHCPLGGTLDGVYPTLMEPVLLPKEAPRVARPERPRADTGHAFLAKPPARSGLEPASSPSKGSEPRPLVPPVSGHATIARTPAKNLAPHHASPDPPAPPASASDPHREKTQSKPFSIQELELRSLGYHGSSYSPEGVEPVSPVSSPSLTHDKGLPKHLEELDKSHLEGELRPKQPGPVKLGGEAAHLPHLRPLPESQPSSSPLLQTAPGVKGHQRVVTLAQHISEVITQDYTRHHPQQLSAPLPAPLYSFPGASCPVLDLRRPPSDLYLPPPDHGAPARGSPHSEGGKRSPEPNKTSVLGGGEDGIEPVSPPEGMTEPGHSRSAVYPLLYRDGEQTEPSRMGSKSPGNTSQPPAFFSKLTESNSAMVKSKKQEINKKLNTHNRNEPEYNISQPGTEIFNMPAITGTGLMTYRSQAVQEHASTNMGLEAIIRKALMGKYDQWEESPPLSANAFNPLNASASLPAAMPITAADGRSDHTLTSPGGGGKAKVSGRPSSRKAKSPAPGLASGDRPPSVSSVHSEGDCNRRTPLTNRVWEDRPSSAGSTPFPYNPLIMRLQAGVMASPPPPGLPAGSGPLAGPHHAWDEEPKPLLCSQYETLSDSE

Question: Which IC50 [1] does the source give for `O=C(CSc1ccc(-c2cccs2)nn1)N1CCCCCC1` here?
Answer: > 39.8 µM (not active)

Question: And the IC50 [2]?
Answer: 4.73 µM (active)

Question: For `CCc1c(C)sc(N=C(S)Nc2nc(C)cc(C)n2)c1C(=O)OC`, which IC50 [3] is on record?
Answer: > 50 µM (not active)

Question: And the IC50 (CHO-K1)?
Answer: > 66.2 µM (inactive)

Question: And the IC50 [4]?
Answer: > 49.8 µM (inactive)

Question: What about the IC50 [5] of the same molecule?
Answer: 2.23 µM (active)

Question: What about the IC50 [6] of the same molecule?
Answer: 4.29 µM (active)

Question: What about the IC50 (Orexin receptor type 2 [7]) of the same molecule?
Answer: 15 µM (inactive)

Question: And the IC50 (Orexin receptor type 2 [8])?
Answer: > 50 µM (inactive)

Question: Which IC50 [3] does the source give for `O=C(NCCO)c1cc2ccccc2cc1O` here?
Answer: > 50 µM (not active)

Question: Which IC50 (Aspartyl aminopeptidase) does the source give for `COc1cc([N+](=O)[O-])ccc1NC(=O)Nn1cnnc1` here?
Answer: 0.353 µM (active)

Question: What about the IC50 (Procathepsin L) of the same molecule?
Answer: > 59.6 µM (not active)

Question: Which results are given for `CCOC(=O)N1CCN(CCC(=O)c2ccc(Cl)cc2)CC1`?
Answer: IC50 [9]: > 50 µM (not active); AC50 [10]: 12 µM (active)

Question: Which IC50 [1] does the source give for `COc1cnn(-c2ccccc2)c(=O)c1SCc1ccc(Cl)c(Cl)c1` here?
Answer: 5.85 µM (active)

Question: And the IC50 [2]?
Answer: 5 µM (active)

Question: What does the source list for `Cc1cc(C)c2c(N)c(C(=O)Nc3nccs3)sc2n1`?
Answer: EC50 [11]: > 100 µM (not active); EC50 (HT-1080): > 50 µM (not active); EC50 [12]: > 67.5 µM (inactive); EC50 (cells [13]): > 67.5 µM (inactive)

Question: With `C=CCn1c(C)cc(C(=O)CSc2ccc(NC(C)=O)cc2)c1C` as the molecule, how does the EC50 [11] read?
Answer: 0.77 µM (active)

Question: And the EC50 (HT-1080)?
Answer: > 50 µM (not active)

Question: With `COC(=O)c1ccc(C)c(NS(=O)(=O)c2ccc(OC)cc2)c1` as the molecule, how does the EC50 [14] read?
Answer: > 12 µM (not active)

Question: And the EC50 (BJ [15])?
Answer: 0.689 µM (inconclusive)

Question: What about the EC50 (cells [16]) of the same molecule?
Answer: 1.02 µM (active)

Question: And the EC50 [17]?
Answer: < 0.1 µM (active)

Question: What about the EC50 (BJ [18]) of the same molecule?
Answer: 1.61 µM (active)

Question: What about the EC50 (BJ [19]) of the same molecule?
Answer: 0.353 µM (inconclusive)

Question: And the EC50 [20]?
Answer: 0.682 µM (active)

Question: And the EC50 [21]?
Answer: 0.834 µM (active)

Question: Which IC50 [1] does the source give for `CS(=O)(=O)N(CC(=O)N1CCC(C(N)=O)CC1)c1ccc(Oc2ccccc2)cc1` here?
Answer: 0.792 µM (active)

Question: What about the IC50 [2] of the same molecule?
Answer: 1.05 µM (active)
